Reference: patent US20250163002A1, “FUSED QUINONOXIME IMIDAZOLE, ONIUM DERIVATIVES THEREOF, PREPARATION AND USE THEREOF” (SHANGHAI JIAO TONG UNIVERSITY, priority 2022, published 2025)
Each block holds one molecule with its values, some of them ahead of it.

What was measured:
MCF-7 = assay: In vitro inhibition test for cancer cell proliferation (MTT), MCF-7; assay type: cell-based; settings: unit inferred
A549 = assay: In vitro inhibition test for cancer cell proliferation (MTT), A549; assay type: cell-based; settings: unit inferred
L929 = assay: In vitro cell proliferation inhibition test (MTT), L929; assay type: cell-based; settings: unit inferred
HeLa = assay: In vitro inhibition test for cancer cell proliferation (MTT), HeLa; assay type: cell-based; settings: 24 h or 48 h after addition, unit inferred
leukemia cell CCRF-CEM = assay: In vitro proliferation inhibition, CCRF-CEM; assay type: cell-based; settings: unit inferred
Experimental: (§1) Test method: pancreatic cancer cells CFPAC-1 were cultured in a Dalbeco-improved Eagle medium with the addition of 10% FBS and 5% double-antibody. CFPAC-1 cancer cells were inoculated into a 96-well plate for incubation for 24 h; in the following day, test compounds having various concentrations of (100, 20, 10, 1, 0.1, 0.01, and 0.001 μM) and positive control agents were added per well; corresponding volume of fresh medium was added to blank control. After addition for 24 h or 48 h, cell proliferation was evaluated by chromogenic reaction of MTT formazan.
(§2) In addition, compounds (I), (II), (III), and (IV) of the present invention have good inhibition activity against the proliferation of other cancer cells, including non-small cell lung cancer cell (H460, H1299), liver tumor cell (HepG2), rectal cancer cell (HT29), leukemia cell (CCRF-CEM), prostate cancer cell (PC-3), ovarian carcinoma cell (SKOV-3), melanoma cell (A375), myeloma cell (RPMI-8226), esophageal carcinoma cell (TE-1), pancreatic cancer cell (CFPAC-1, PANC-1, SW1990, ASPC-1, and BXPC-3), bladder cancer cell (5637), and gastric cancer cell (KATO-III).

[1] = tested on: pancreatic cancer cells CFPAC-1; assay: In vitro proliferation inhibition, CFPAC-1; assay type: cell-based; settings: unit inferred
Experimental: as §1, §2

[2] = tested on: pancreatic cancer cell BXPC-3; assay: In vitro proliferation inhibition, BXPC-3; assay type: cell-based; settings: unit inferred
Experimental: as §1, §2

[3] = tested on: esophageal carcinoma cell TE-1; assay: In vitro proliferation inhibition, TE-1; assay type: cell-based; settings: unit inferred
Experimental: as §1, §2

[4] = tested on: non-small cell lung cancer cell H460; assay: In vitro proliferation inhibition, H460; assay type: cell-based; settings: unit inferred
Experimental: as §1, §2

[5] = tested on: gastric cancer cell KATO-III; assay: In vitro proliferation inhibition, KATO-III; assay type: cell-based; settings: unit inferred
Experimental: as §1, §2

[6] = tested on: pancreatic cancer cell ASPC-1; assay: In vitro proliferation inhibition, ASPC-1; assay type: cell-based; settings: unit inferred
Experimental: as §1, §2

[7] = tested on: prostate cancer cell PC-3; assay: In vitro proliferation inhibition, PC-3; assay type: cell-based; settings: unit inferred
Experimental: as §1, §2

[8] = tested on: pancreatic cancer cell SW1990; assay: In vitro proliferation inhibition, SW1990; assay type: cell-based; settings: unit inferred
Experimental: as §1, §2

rectal cancer cell HT29 = assay: In vitro proliferation inhibition, HT29; assay type: cell-based; settings: unit inferred
Experimental: as §1, §2

[9] = tested on: non-small cell lung cancer cell H1299; assay: In vitro proliferation inhibition, H1299; assay type: cell-based; settings: unit inferred
Experimental: as §1, §2

liver tumor cell HepG2 = assay: In vitro proliferation inhibition, HepG2; assay type: cell-based; settings: unit inferred
Experimental: as §1, §2

melanoma cell A375 = assay: In vitro proliferation inhibition, A375; assay type: cell-based; settings: unit inferred
Experimental: as §1, §2

[10] = tested on: CFPAC-1 pancreatic cancer cells; assay: In vivo inhibition test of cancer cell proliferation, CFPAC-1 transplant; design: species or system Balb/c naked mouse; settings: 7 mg/kg, once every other three days, 7 times; gross tumor volume
Experimental: Test method: 3×10^7 CFPAC-1 pancreatic cancer cells were transplanted to subcutaneous tissues of armpit of a Balb/c naked mouse; administration was conducted when the tumor grew to 50-100 mm^3, 100-200 mm^3, and greater than 200 mm^3; the mouse was administered once every other three days, 7 times in total, and 7 mg/kg each time. Normal saline was injected in the control group. Tumor length and diameter were measured by calipers and weight of the moue was weighed until the next day of the final administration. Gross tumor volume was calculated by the following equation:
gross tumor volume (mm^3)=½×[short diameter (mm)]^2×long diameter (mm)

[11] = tested on: pancreatic cancer cell PANC-1; assay: In vitro proliferation inhibition, PANC-1; assay type: cell-based; settings: unit inferred
Experimental: as §1, §2

[12] = tested on: ovarian carcinoma cell SKOV-3; assay: In vitro proliferation inhibition, SKOV-3; assay type: cell-based; settings: unit inferred
Experimental: as §1, §2

bladder cancer cell 5637 = assay: In vitro proliferation inhibition, 5637; assay type: cell-based; settings: unit inferred
Experimental: as §1, §2

myeloma cell RPMI-8226 = assay: In vitro proliferation inhibition, RPMI-8226; assay type: cell-based; settings: unit inferred
Experimental: as §1, §2

IC50 (MCF-7; Homo sapiens, MCF7, 24 h or 48 h after addition): 26800 nM | IC50 (A549; Homo sapiens, A549, 24 h or 48 h after addition): 20 nM | IC50 (HeLa; Homo sapiens, HeLa): 13200 nM
Molecule: COCCOCCOCCO/N=C1\c2ccccc2C(=O)c2c1[n+](C)cn2C [Compound 147, (E) and (Z)-4-((2-(2-(2-methoxyethoxy)ethoxy)ethoxy)imino)-1,3-dimethyl-9-oxo-4,9-dihydro-1H-naphthol[2,3-d]imidazole-3-iodide]
IC50 (L929; Mus musculus, L929, 24 h or 48 h after addition): 15700 nM

Molecule: CCCCn1c2c([n+](C)c1-c1cc(OC)c(OC)c(OC)c1)C(=NOCc1ccccc1)c1ccccc1C2=O [Compound 148, (E) and (Z)-4-((benzyloxy)imino)-1-butyl-3-methyl-9-oxo-2-(3,4,5-trimethoxyphenyl)-4,9-dihydro-1H-naphthol[2,3-d]imidazole-3-iodide]
IC50 (MCF-7; 24 h or 48 h after addition): 34600 nM | IC50 (A549; 24 h or 48 h after addition): 90 nM | IC50 (L929; 24 h or 48 h after addition): 44100 nM | IC50 (HeLa): 23600 nM

Molecule: Cn1c[n+](C)c2c1C(=O)c1cc3ccccc3cc1C2=NOCc1ccccc1 [Compound 149, (E) and (Z)-4-((benzyloxy)imino)-1,3-dimethyl-11-oxo-4, 11-dihydro-1H-anthracene[2,3-d]imidazole-3-iodide]
IC50 (MCF-7; 24 h or 48 h after addition): 75300 nM | IC50 (A549; 24 h or 48 h after addition): 330 nM | IC50 (L929; 24 h or 48 h after addition): > 100000 nM | IC50 (HeLa): 67400 nM

Molecule: C=CCON=C1c2cc3ccccc3cc2C(=O)c2c1[n+](C)cn2C [Compound 150, (E) and (Z)-4-((allyloxy)imino)-1,3-dimethyl-11-oxo-4,11-dihydro-1H-anthracene[2,3-d]imidazole-3-iodide]
IC50 (MCF-7; 24 h or 48 h after addition): 45900 nM | IC50 (A549; 24 h or 48 h after addition): 460 nM | IC50 (L929; 24 h or 48 h after addition): 97800 nM | IC50 (HeLa): 34400 nM

Molecule: Cn1c[n+](C)c2c1C(=O)c1cc3ccccc3cc1C2=NOCc1ccc([N+](=O)[O-])cc1 [Compound 151, (E) and (Z)-1,3-dimethyl-4-(((4-nitrobenzyl)oxy)imino)-11-oxo-4,11-dihydro-1H-anthracene[2,3-d]imidazole-3-iodide]
IC50 (MCF-7; 24 h or 48 h after addition): 78800 nM | IC50 (A549; 24 h or 48 h after addition): 120 nM | IC50 (L929; 24 h or 48 h after addition): 89600 nM | IC50 (HeLa): 56800 nM

Molecule: (E) and (Z)-4-(butoxyimino)-1,3-dimethyl-9-oxo-4,9-dihydro-1H-naphthol[2,3-d] [Compound 128]
IC50 (leukemia cell CCRF-CEM): 530 nM | IC50 [1]: 8 nM | IC50 [2]: 6 nM | IC50 [3]: 9 nM | IC50 [4]: 140 nM | IC50 (MCF-7; 24 h or 48 h after addition): 2900 nM | IC50 [5]: 9 nM | IC50 [6]: 8 nM | IC50 [7]: 8800 nM | IC50 [8]: 9 nM | IC50 (rectal cancer cell HT29): 9800 nM | IC50 [9]: 170 nM | IC50 (liver tumor cell HepG2): 20 nM | IC50 (melanoma cell A375): 1660 nM | proliferation inhibition activity / inhibition ratio [10]: 100% | IC50 (A549; 24 h or 48 h after addition): 4 nM | IC50 [11]: 100 nM | IC50 (L929; 24 h or 48 h after addition): 6500 nM | IC50 [12]: 80 nM | IC50 (HeLa): 4800 nM | IC50 (bladder cancer cell 5637): 10 nM | IC50 (myeloma cell RPMI-8226): 78900 nM
